The text below walks through data of PMC8665362, “Identification of small-molecule allosteric modulators that act as enhancers/disrupters of rhodopsin oligomerization” (The Journal of Biological Chemistry, 2021).

Test [1] has as its target rhodopsin (isorhodopsin) dimerization (Homo sapiens, UniProt P08100). As to the kind of experiment: rhodopsin β-gal fragment complementation assay in U2OS opsin-EA/opsin-PK cells. Also on record: expressed in transfected cells. The conditions noted are these: U2OS opsin-EA/PK cells regenerated with 9-cis-retinal; triplicates; read from Fig. 3A,D. It is filed as cell-based. An excerpt:
To identify small molecules that target rhodopsin dimerization, a cell-based high-throughput screening (HTS) assay was used to screen a diverse library of 50,000 compounds from Life Chemicals. The human osteosarcoma (U2OS) stable cell line was used, which expresses opsin fused with complimentary subunits of β-galactosidase (β-gal), namely, the enzyme acceptor large β-gal subunit (EA) and the enzyme donor, small subunit of β-gal (PK). Upon rhodopsin self-association in vitro, a competent β-gal was formed and chemiluminescent signal was generated in the presence of β-gal substrate (Fig. 1A). For further validation, the β-gal activity assay was used to counter-screen and rule out false positives, affecting the activity of β-gal without affecting rhodopsin (Fig. 1B) ([34]). In an orthogonal assay, rhodopsin dimerization was assessed using a bioluminescence resonance energy transfer (BRET) assay with human embryonic kidney 293 cells expressing opsin fused with Renilla luciferase and opsin fused with Venus (Fig. 1C) ([35], [36]). To form functional visual pigment, opsin-fused proteins were regenerated with 9-cis-retinal to form so-called isorhodopsin ([37]). We chose 9-cis-retinal over photoreceptor-endogenous 11-cis-retinal because of its availability and the prohibitive cost for HTS assays with the native chromophore. Rhodopsin and isorhodopsin have similar biochemical and spectral properties (see ([38])).
All 50,000 compounds were screened, using the β-gal complementation assay at a final concentration of 60 μM with a Z′ factor of 0.75 ± 0.01 and a signal-to-background (S/B) ratio of 123 ± 14.4 (Fig. 2A) ([39]). The activity scores were calculated according to the following equation: (RLU(compound)−RLU(positivecontrol))/(RLU(negativecontrol)−RLU(positivecontrol))×100.
The positive control comprised U2OS cells transfected with both opsin-EA and opsin-PK, mimicking dimer formation (with a 0% score value), and the negative control comprised U2OS cells transfected with opsin-EA only, mimicking disrupted dimer formation (with a 100% score value).
In this study, cultured U2OS opsin-EA and opsin-PK cells were diluted to 2 × 10^5 cells/ml in the culture medium containing 10% fetal bovine serum (Thermo Fisher Scientific) and 1% penicillin-streptomycin 10,000 U/ml (Thermo Fisher Scientific). Cell diluent of 20 μl/well was dispensed into a white ViewPlate-384 (PerkinElmer) using the EL406 plate dispenser (BioTek). As a control, we used U2OS opsin-EA–only expressing cells as a positive control for dimerization disruption generating a minimal luminescence signal, as previously described ([41]). The plates were cultured overnight at 37 °C in 5% CO2, and the next day, under a dim red light, cells were treated with 5 μl/well of 9-cis-retinal (Sigma-Aldrich) at 7.5 μM final concentration. Plates were covered with aluminum foil and cultured overnight at 37 °C in 5% CO2. Next, cells were treated with each of the 50,000 library compounds (Life Chemicals Inc) at a final concentration of 57.6 μM, using a JANUS automated workstation (PerkinElmer), followed by incubation overnight at 37 °C, covered with aluminum foil. The next day, cells were treated with Galacton-Star chemiluminescent substrate (23 μl/well; Thermo Fisher Scientific). The plates were covered with foil and incubated at 20 °C for 2 h, followed by luminescence reading with the EnSpire multimode plate reader (PerkinElmer). Measurements were evaluated with the lowest value being defined as −50% (dimer enhancers) and the highest value as 100% (dimer disrupters) in the compound dataset. All experiments were done under red-light conditions. Identified compounds were retested in triplicates ranging from 180 μM down to 2.4 nM concentrations.

In test [2] the test system is individual rod photoreceptors. As to the kind of experiment: single-cell suction electrode recording from rod outer segments. The conditions noted are these: suction electrode, 250 μM compound. It is filed as cell-based, mouse (C57BL/6J). The method, then: Because it is possible that reduction of Rmax by compound #1 is due to some effect(s) on the rod photoreceptor inner segment currents that are not directly related to phototransduction ([51], [52]), we conducted also single-cell suction electrode recordings from the ROS from samples that were incubated either in the control medium or in the medium containing enhancer compound #1. The results from single cell recordings were similar to those obtained using ex vivo ERG: Rmax and fractional sensitivity were decreased from 12 (±0.4) to 9 (±0.3) pA and from 3.0 (±0.5) to 1.8 (±0.1)% per photon μm^−2, respectively, by rhodopsin dimerization–enhancing hit #1 (Fig. 6, A–C). Like the ex vivo ERG recordings, light response kinetics was not affected by compound #1 in the single-cell recordings (Fig. 6D).
Suction electrode recordings from individual rod photoreceptors of dark-adapted C57BL/6J mice were conducted as described previously ([65]). Before recordings, isolated retinas were incubated in the control medium (Ames’ medium + 0.1% DMSO) or in the hit compound–containing medium (Ames’ medium +250 μM F2502-0030 (#1)) as described above for ex vivo ERG experiments. After incubation, one half of the retina was chopped with a razor blade and transferred into a chamber where it was perfused at 1 ml/min with Ames’ medium saturated with 95% O2/5% CO2 at 35 °C. Recordings were made from a single ROS, using borosilicate glass electrodes with ∼1.5-μm opening (resistance ∼2 MΩ at 35 °C). The pipette solution was Hepes buffered Ames’ medium composed of 0.88 g Ames’ powder (A1420, Sigma-Aldrich), 0.357 g Hepes (Sigma-Aldrich), and 58.44 mg NaCl in […] distilled and vacuum-filtered water. The pH was adjusted to 7.4 with NaOH. Light responses were recorded to flashes of light ranging from 8 to 700 photons μm^−2 at 500 nm. For analysis, data were low-pass filtered using an 8-pole Bessel filter with cut-off frequency at 30 Hz.

rhodopsin (isorhodopsin) dimerization, sequence (P08100 whole entry, the tested form may be a part): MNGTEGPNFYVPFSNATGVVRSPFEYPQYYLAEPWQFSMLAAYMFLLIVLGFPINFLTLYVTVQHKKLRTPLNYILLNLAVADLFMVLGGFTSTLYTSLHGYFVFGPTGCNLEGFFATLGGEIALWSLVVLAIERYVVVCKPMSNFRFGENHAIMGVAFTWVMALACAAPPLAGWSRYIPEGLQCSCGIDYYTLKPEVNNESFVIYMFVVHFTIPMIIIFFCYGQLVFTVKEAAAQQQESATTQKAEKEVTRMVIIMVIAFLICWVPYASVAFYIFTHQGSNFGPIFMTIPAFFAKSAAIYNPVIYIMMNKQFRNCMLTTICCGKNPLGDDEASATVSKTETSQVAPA

In the case of `O=C(CSc1nnc(NC(=O)Cc2ccc(F)cc2)s1)NO` [#1], in test [1], the response was half-maximal at 2300 nM (EC50). Also, the “light response kinetics (single-cell)” value in test [2] is listed as “not affected”. The “fractional sensitivity (single-cell)” value in test [2] (control 3.0 (±0.5)) is 1.8 (±0.1) % per photon μm^−2. Further, in test [2] (control 12 (±0.4)), the “Rmax (single-cell)” value is given as 9 (±0.3) pA.
